Like-named read-outs stand apart in the source and are kept apart here. Blank lines part the entries; values can stand above or below the molecule they belong to.
Tests used:
[1] = In vivo pharmacokinetic time profile in mice (plasma and brain); design: species or system mouse; settings: for Kp / half-life / Cmax: male; for Kp: C57, mouse, brain, read-out: measured brain/plasma ratio; for half-life / Cmax: C57, plasma; for half-life / Cmax / Estimated unbound brain Cmax / Unbound plasma, Cmax: mouse; for half-life: read-out: T½ (converted)
Protocol: Male Sprague Dawley rats or male C57 mice from SLAC Laboratory Animal Co. Ltd., Shanghai, China or SIPPR/BK Laboratory Animal Co. Ltd., Shanghai, China were used for pharmacokinetic studies. Animals were group housed during acclimation and individually housed during in-life. The animal room environment was controlled (conditions: temperature 20 to 26° C., relative humidity 30 to 70%, 12 hours artificial light and 12 hours dark) and all animals have access to Certified Rodent Diet (Beijing KEAO XIELI Feed Co., Ltd. Beijing, P.R. China.) ad libitum. Animals were deprived of food overnight prior to dosing and fed approximately 4 hours post-dosing. Water was autoclaved before provided to the animals ad libitum.
For oral dosing, the dose formulation was administered via oral gavage.
Animals were anesthetized via isoflurane. At terminal time point, about 200 μL blood was collected from cardiac puncture or abdominal vein. All blood samples were transferred into microcentrifuge tubes containing 5 μL of K2EDTA (0.5 M) as anti-coagulant and placed on wet ice until processed for plasma by centrifugation (3,000 rpm for 5 minutes at 2 to 8° C.) within half an hour of collection and kept at −70±10° C. until LC/MSMS analysis
After blood collection, brain was harvested and washed twice with cold deionized water, and blotted on filter paper, weighted and frozen until processed. Brain samples were thawed and homogenized with 4-fold of cold water using Covaris (peak power 450.0, Duty Factor 20.0, Cycles/Burst 200). for 3 min, vortex for 10 second every 1 min. Samples were further stored at −79° C. (dilution factor=5) until bioanalysis

human Kv3.1b = target: T1, human Kv3.1b (Homo sapiens, UniProt P48547); test: Manual patch clamp electrophysiology, HEK-293 cells stably expressing human Kv3.1b; format: cell-based; settings: for hKv3.1 ECΔ30% increase: concentration increasing current by 30% at the −10 mV step; for hKv3.1 ECΔ5 mV: concentration that shifts activation threshold by 5 mV
T1 construct: expressed in transfected cells
T1 sequence (P48547 1-585 isoform P48547-2): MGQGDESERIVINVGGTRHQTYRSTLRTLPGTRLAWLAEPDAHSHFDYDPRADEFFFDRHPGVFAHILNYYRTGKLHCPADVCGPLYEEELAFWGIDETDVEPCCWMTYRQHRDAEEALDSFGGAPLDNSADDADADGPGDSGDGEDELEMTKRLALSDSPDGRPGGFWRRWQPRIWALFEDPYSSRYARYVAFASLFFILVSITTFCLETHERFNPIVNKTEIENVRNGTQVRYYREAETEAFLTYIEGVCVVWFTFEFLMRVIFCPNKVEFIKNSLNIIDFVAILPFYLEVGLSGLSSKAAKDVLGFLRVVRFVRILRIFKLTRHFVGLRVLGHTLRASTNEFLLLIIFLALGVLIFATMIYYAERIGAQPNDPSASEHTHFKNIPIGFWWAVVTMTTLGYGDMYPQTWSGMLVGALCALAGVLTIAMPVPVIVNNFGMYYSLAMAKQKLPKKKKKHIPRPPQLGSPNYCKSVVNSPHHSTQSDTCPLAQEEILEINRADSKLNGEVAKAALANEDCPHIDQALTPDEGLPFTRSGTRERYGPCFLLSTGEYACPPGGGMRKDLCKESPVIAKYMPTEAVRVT
Protocol: Manual Patch Clamp Electrophysiological Evaluation, hKv3.1, hKv3.2, hKv3.3, hKv3.4:
HEK-293 cells stably expressing human Kv3.1b, Kv3.2, Kv3.3 or Kv3.4 were used for the experiments.
Kv3.1b, Kv3.2: Cells were cultured in MEM medium supplemented with 10% Fetal Bovine Serum, 1% Penicillin/Streptomycin, 2 mM glutamine and 0.6 mg/mL geneticin. Cells were grown to 80-90% confluency at 37° C. and 5% CO2 Kv3.3 or Kv3.4: Cells were cultured in DMEM medium supplemented with 10% Fetal Bovine Serum, 500 ug/mL Geneticidin and 1% Penicillin/Streptomycin. Cells were grown to 80-90% confluency at 37° C. and 5% CO2.
On the day of the experiment the cells were detached by TrypLE and resuspended in culture medium. Cells were centrifuged, media removed and the cells were resuspended in extracellular buffer containing (in mM): 130 Na-gluconate, 20 NaCl, 4 KCl, 1 MgCl2, 1.8 CaCl2, 10 HEPES and 5 glucose, pH 7.3 adjusted with NaOH, 310-320 mOsm
Patch-clamp recordings were performed using a manual patch-clamp system (Axon Multiclamp 700B, Digidata 1440, pCLAMP 10, Molecular Devices Corporation) with a fast perfusion system (RSC-160 Rapid solution Changer, BioLogic). Whole-cell recordings were carried out using an intracellular solution containing (in mM): 100 K-gluconate, 40 KCl, 10 HEPES, 1 EGTA, 1 MgCl2, pH 7.2 adjusted with KOH, 290-300 mOsm. Cell membrane potentials were held at −80 mV and current voltage-relationship was generated by voltage steps (50 ms duration) from −100 mV to +10 mV (in 10 mV increments) and then back to −100 mV for 50 ms, with inter-sweep interval of 3 s. The peak current amplitude of −10 mV was monitored until stable (<5% change) by using one step voltage protocol. One IV protocol was run as baseline, then compound perfusion was stared and peak current stability was monitored with single step protocol prior to the IV protocol. Single concentrations were measured per cell. Acceptable cells had seal resistance >500 MOhm, Access resistance <10 MOhm, and leak current <200 pA.
Data analysis was performed using Clampfit (V10.2) in combination with Microsoft Excel™ (Redmond, Wash., USA). Current voltage relationships were plotted from the peak current (baseline subtracted) at the individual voltage steps normalized to the vehicle addition at 10 mV. The voltage threshold for channel activation was defined as 5% activation of the peak current at 10 mV in presence of vehicle. […] The concentration needed to shift the threshold 5 mV was readout from this curve (ECΔ5 mV), as well as the ability to increase the peak current at the −10 mV step (EC30% increase). […]

Kp ([1]; subcutaneous): 0.3
half-life ([1]; SC administration, dose 3 (mg/mg) (Table 7)): 42 min
Cmax ([1]; SC administration, dose 3 (mg/mg), vehicle 10% HP-betaCD (Table 7)): 3020 ng/mL
half-life ([1]; SC administration, dose 30 (mg/mg) (Table 7)): 36 min
Cmax ([1]; SC administration, dose 30 (mg/mg), vehicle 10% HP-betaCD (Table 7)): 22000 ng/mL
Estimated unbound brain Cmax ([1]; SC, dose 3 (mg/mg), based on brain/plasma ratio 0.3 and unbound fraction in brain 11%): 289 nM
Unbound plasma, Cmax ([1]; SC, dose 3 (mg/mg), unbound fraction in plasma 8%): 700 nM
Estimated unbound brain Cmax ([1]; SC, dose 30 (mg/mg), based on brain/plasma ratio 0.3 and unbound fraction in brain 11%): 2100 nM
Unbound plasma, Cmax ([1]; SC, dose 30 (mg/mg), unbound fraction in plasma 8%): 5094 nM
hKv3.1 ECΔ30% increase (human Kv3.1b): 10.1 µM
hKv3.1 ECΔ5 mV (human Kv3.1b): 3.0 µM
Structure (SMILES): Cc1ccc(S(=O)(=O)n2ccc(C(=O)NCc3ncco3)c2)cc1 [Compound 86, 1-(4-methylbenzene-1-sulfonyl)-N-[(1,3-oxazol-2-yl)methyl]-1H-pyrrole-3-carboxamide]

Kp [1]: 0.4
Cmax ([1]; 3 mg/kg, PO administration, dose 3 (mg/mg), vehicle 10% HP-betaCD): 274 ng/mL
half-life ([1]; 3 mg/kg, PO administration, dose 3 (mg/mg)): 60 min
Cmax ([1]; 3 mg/kg, SC administration, dose 3 (mg/mg), vehicle 10% HP-betaCD): 1130 ng/mL
half-life ([1]; 3 mg/kg, SC administration, dose 3 (mg/mg)): 30 min
Cmax ([1]; 10 mg/kg, SC administration, dose 10 (mg/mg), vehicle 10% HP-betaCD): 6360 ng/mL
half-life ([1]; 10 mg/kg, SC administration, dose 10 (mg/mg)): 78 min
Cmax ([1]; 30 mg/kg, PO administration, dose 30 (mg/mg), vehicle 10% HP-betaCD): 7350 ng/mL
half-life ([1]; 30 mg/kg, PO administration, dose 30 (mg/mg)): 60 min
Estimated unbound brain Cmax ([1]; PO, dose 3 (mg/mg), based on brain/plasma ratio 0.4 and unbound fraction in brain 10%): 28 nM
Unbound plasma, Cmax ([1]; PO, dose 3 (mg/mg), unbound fraction in plasma 10%): 70 nM
Estimated unbound brain Cmax ([1]; PO, dose 30 (mg/mg), based on brain/plasma ratio 0.4 and unbound fraction in brain 10%): 753 nM
Unbound plasma, Cmax ([1]; PO, dose 30 (mg/mg), unbound fraction in plasma 10%): 1895 nM
Estimated unbound brain Cmax ([1]; SC, dose 3 (mg/mg), based on brain/plasma ratio 0.4 and unbound fraction in brain 10%): 116 nM
Unbound plasma, Cmax ([1]; SC, dose 3 (mg/mg), unbound fraction in plasma 10%): 291 nM
Estimated unbound brain Cmax ([1]; SC, dose 10 (mg/mg), based on brain/plasma ratio 0.4 and unbound fraction in brain 10%): 656 nM
Unbound plasma, Cmax ([1]; SC, dose 10 (mg/mg), unbound fraction in plasma 10%): 1639 nM
hKv3.1 ECΔ30% increase (human Kv3.1b): 1.8 µM
hKv3.1 ECΔ5 mV (human Kv3.1b): 0.6 µM
Structure (SMILES): Cc1cnc(CNC(=O)c2ccn(S(=O)(=O)c3ccc(F)cc3C)c2)cn1 [Compound 90, 1-(4-fluoro-2-methylbenzene-1-sulfonyl)-N-[(5-methylpyrazin-2-yl)methyl]-1H-pyrrole-3-carboxamide]

From patent publication US20200131156A1, “ARYLSULFONYLPYROLECARBOXAMIDE DERIVATIVES AS Kv3 POTASSIUM CHANNEL ACTIVATORS” (H. Lundbeck A/S, priority 2018, published 2020)
